Reference: US20060121449A1, “Method for selection of compounds which inhibit clonal cell growth and use thereof” (priority 2002, published 2006)
Entries after “also recorded” stand apart in the source; their conditions may differ.

Tested on: polyoma virus transformed BHK21/c13 cells, line S100T1
Assay: Collocation inhibition test: clonal growth in sparsely and densely seeded areas of a cell density gradient of S100T1 cells in soft agar (Exp 13, 17, 19-26);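 further: soft agar cultures in 24-well plates with a cell density gradient in the top layer, compounds applied from DMSO stocks, clonal growth scored in sparse versus dense areas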;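 on Clonal growth, H high density area of cell gradient, High: grades rise with clonal growth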;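 on Clonal growth, H high density area of cell gradient, Low: grades rise with clonal growth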;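 on Clonal growth, H high density area of cell gradient, Medium: grades rise with clonal growth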;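 on Clonal growth, L low density area of cell gradient, High: grades rise with clonal growth and minus or plus-minus means none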;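 on Clonal growth, L low density area of cell gradient, Low: grades rise with clonal growth and minus or plus-minus means none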;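 on Clonal growth, L low density area of cell gradient, Medium: grades rise with clonal growth and minus or plus-minus means none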
Conditions: for Effect on clonal growth: Exp 25, 48 hours incubation; for Clonal growth, H high density area of cell gradient, High / Clonal growth, L low density area of cell gradient, High / Clonal growth, H high density area of cell gradient, Low / Clonal growth, L low density area of cell gradient, Low / Clonal growth, H high density area of cell gradient, Medium / Clonal growth, L low density area of cell gradient, Medium / Effect on cell cloning in soft agar: preliminary results; for Clonal growth, H high density area of cell gradient, High / Clonal growth, L low density area of cell gradient, High / Clonal growth, H high density area of cell gradient, Low / Clonal growth, L low density area of cell gradient, Low / Clonal growth, H high density area of cell gradient, Medium / Clonal growth, L low density area of cell gradient, Medium: Exp 13-18, 21-26; for Effect on cell cloning in soft agar: in words; for Significance: Exp 17 day 14
[1] = Experiment 25, H: area with high cell density, High concentration, after 48 hours incubation
[2] = Experiment 25, H: area with high cell density, Low concentration, after 48 hours incubation
[3] = Experiment 25, H: area with high cell density, Medium concentration, after 48 hours incubation
[4] = Experiment 25, L: area with low cell density, High concentration, after 48 hours incubation
[5] = Experiment 25, L: area with low cell density, Low concentration, after 48 hours incubation
[6] = Experiment 25, L: area with low cell density, Medium concentration, after 48 hours incubation
[7] = Exp 19, 120000 S100T1 cells/well
[8] = Exp 19, high concentration, L: low cell density part of the gradient
[9] = Exp 19, low concentration, L: low cell density part of the gradient
[10] = Exp 19, medium concentration, L: low cell density part of the gradient
[11] = 4-OH-OPB analogues, S100T1 in soft agar, high concentration
[12] = 4-OH-OPB analogues, S100T1 in soft agar, low concentration
[13] = 4-OH-OPB analogues, S100T1 in soft agar, medium concentration
[14] = Exp 19, high concentration, H: high cell density part of the gradient
[15] = Exp 19, low concentration (exact conc. only in figure), H: high cell density part of the gradient
[16] = Exp 19, medium concentration, H: high cell density part of the gradient

Molecule: CN(Cc1cnc2nc(N)nc(N)c2n1)c1ccc(C(=O)N[C@@H](CCC(=O)O)C(=O)O)cc1 [methotrexate, Methotrexate, reference compound]
- Effect on growth (Exp 23, 180000 S100T1 cells/well): did not show significant growth inhibition at all
- Clonal growth (Experiment 23, A (area with high cell density), High concentration, 48 hours): +(+)
- Clonal growth (Experiment 23, A (area with high cell density), Low concentration, 48 hours): ++
- Clonal growth (Experiment 23, A (area with high cell density), Medium concentration, 48 hours): ++
- Clonal growth (Experiment 23, B (area with low cell density), High concentration, 48 hours): +
- Clonal growth (Experiment 23, B (area with low cell density), Low concentration, 48 hours): +
- Clonal growth (Experiment 23, B (area with low cell density), Medium concentration, 48 hours): +(+)

Molecule: Cn1cnc([N+](=O)[O-])c1Sc1ncnc2nc[nH]c12 [Azathioprin, reference compound]
- Effect on clonal growth: no clonal inhibition or stimulation
- Clonal growth [1]: ++
- Clonal growth [2]: ++
- Clonal growth [3]: ++
- Clonal growth [4]: ++
- Clonal growth [5]: ++
- Clonal growth [6]: ++
- Clonal growth, H high density area of cell gradient, High (high concentration): ++
- Clonal growth, L low density area of cell gradient, High (high concentration): ++
- Clonal growth, H high density area of cell gradient, Low (low concentration): ++
- Clonal growth, L low density area of cell gradient, Low (low concentration): ++
- Clonal growth, H high density area of cell gradient, Medium (medium concentration): ++
- Clonal growth, L low density area of cell gradient, Medium (medium concentration): ++
- Effect on cell cloning in soft agar: No effect

Molecule: Somatotropin: growth hormone tested for clonal stimulation
- Effect on clonal growth: seemed to create some large colonies
- Clonal growth [1]: ++
- Clonal growth [2]: ++(+)
- Clonal growth [3]: ++(+)
- Clonal growth [4]: ++
- Clonal growth [5]: ++(+)
- Clonal growth [6]: ++(+)
- Clonal growth, H high density area of cell gradient, High (high concentration): ++
- Clonal growth, L low density area of cell gradient, High (high concentration): ++
- Clonal growth, H high density area of cell gradient, Low (low concentration): ++(+)
- Clonal growth, L low density area of cell gradient, Low (low concentration): ++(+)
- Clonal growth, H high density area of cell gradient, Medium (medium concentration): ++(+)
- Clonal growth, L low density area of cell gradient, Medium (medium concentration): ++(+)

Molecule: O=P1(N(CCCl)CCCl)NCCCO1 (stereo not drawn) [Cyclophosphamide, reference compound]
- Effect on growth in densely and sparsely seeded areas [7]: no inhibition of growth in any of these areas; also recorded: No inhibition of clonal cell growth was
- Effect on growth in densely seeded areas [7]: stimulation of clonal growth probably was significant
- Effect on growth in densely and sparsely seeded areas (Exp 19, 120000 S100T1 cells/well, listed as cyclophosphamide): obtained, but cyclophosphamide stimulated
- Clonal growth after 48 hours incubation [8]: ++
- Clonal growth after 48 hours incubation [9]: ++
- Clonal growth after 48 hours incubation [10]: ++
- Clonal growth, H high density area of cell gradient, High (high concentration): ++
- Clonal growth, L low density area of cell gradient, High (high concentration): ++
- Clonal growth, H high density area of cell gradient, Low (low concentration): ++(+)
- Clonal growth, L low density area of cell gradient, Low (low concentration): ++
- Clonal growth, H high density area of cell gradient, Medium (medium concentration): ++(+)
- Clonal growth, L low density area of cell gradient, Medium (medium concentration): ++
- Effect on cell cloning in soft agar: When unactivated growth increased in

Molecule: CCCCC1(O)C(=O)N(c2ccccc2)N(c2ccccc2)C1=O [#11, 4-butyl-4-hydoxy-1,2-diphenyl-3,5-pyrazolidnedione]
- Clonal growth, H: high density area of cell gradient, High [11]: ++(+)
- Clonal growth, L: low density area of cell gradient, High [11]: ++
- Clonal growth, H: high density area of cell gradient, Low [12]: ++
- Clonal growth, L: low density area of cell gradient, Low [12]: ++
- Clonal growth, H: high density area of cell gradient, Medium [13]: ++
- Clonal growth, L: low density area of cell gradient, Medium [13]: ++
- Effect on clonal growth: did not show any growth inhibition; also recorded: high concentration might stimulate growth in densely seeded areas
- Clonal growth [1]: ++(+)
- Clonal growth [2]: ++
- Clonal growth [3]: ++
- Clonal growth [4]: ++
- Clonal growth [5]: ++
- Clonal growth [6]: ++
- Clonal growth (Summary Table 3 of analogue tests (experiments 22-25), H (high cell density), High concentration): ++(+)
- Clonal growth (Summary Table 3 of analogue tests (experiments 22-25), H (high cell density), Low concentration): ++
- Clonal growth (Summary Table 3 of analogue tests (experiments 22-25), H (high cell density), Medium concentration): ++
- Clonal growth (Summary Table 3 of analogue tests (experiments 22-25), L (low cell density), High concentration): ++
- Clonal growth (Summary Table 3 of analogue tests (experiments 22-25), L (low cell density), Low concentration): ++
- Clonal growth (Summary Table 3 of analogue tests (experiments 22-25), L (low cell density), Medium concentration): ++
- Clonal inhibition by 4-OH-OPB analogues, summary of Exp 22-25 (sparsely seeded areas while densely seeded areas of the same culture showed significant growth): possible stimulation at high concentration

Molecule: COc1c(C)c2c(c(O)c1C/C=C(\C)CCC(=O)O)C(=O)OC2 [Mycophenolic ac]
- Clonal growth after 48 hours incubation [14]: (+)
- Clonal growth after 48 hours incubation [8]: (+)
- Clonal growth after 48 hours incubation [15]: (+)
- Clonal growth after 48 hours incubation [9]: (+)
- Clonal growth after 48 hours incubation [16]: (+)
- Clonal growth after 48 hours incubation [10]: (+)

Molecule: COc1cc2c(c(OC)c1OC)-c1ccc(OC)c(=O)cc1[C@@H](NC(C)=O)CC2 [Colchicin]
- Control of metastatic cells leaving tumour (ability of cells to leave a tumour, grow and infiltrate locally or grow in sparsely seeded areas, concluded from Exp 17): probably not
- Control of settlement of metastatic cells (single cells or very few cells spread to distant sites, concluded from Exp 17): partly
- Toxicity for body or dense cell populations (supposed main advantages or disadvantages if used in cancer treatment, concluded from Exp 17): none or small
- Tolerating long duration of treatment (supposed, if used in cancer treatment): yes

Molecule: C[S+](C)[O-] [DMSO]
- Effect on formation of clones at 4.7% (Exp 17): inhibited formation of clones, but not completely
- Effect on formation of clones at 29.2 μl/700 μl or 4% (Exp 17): inhibited formation of clones, but not completely
- Clonal growth, results read on the day 14 (Exp 17, a: close to densely seeded cell areas, Low: Colchicine 0.1, Podophyllotoxin 0.3, Etoposide 20, 4-OH—OPB 0.67 μM in wells, DMSO 1.16 μl): ++
- Clonal growth, results read on the day 14 (Exp 17, a: close to densely seeded cell areas, Medium: Colchicine 0.3, Podophyllotoxin 0.9, Etoposide 60, 4-OH—OPB 2 μM in wells, DMSO 6.8 μl): ++
- Clonal growth, results read on the day 14 (Exp 17, b: sparsely seeded areas in the same agar culture, Low: Colchicine 0.1, Podophyllotoxin 0.3, Etoposide 20, 4-OH—OPB 0.67 μM in wells, DMSO 1.16 μl): ++
- Concentration up to which growth was approximately unaffected (Exp 17, soft agar cultures of S100T1): up to 1%
- Growth inhibition at concentrations administered along with the test substances (Exp 19): did not show growth inhibition
- Significance (a: close to densely seeded cell areas, High: Colchicine 1, Podophyllotoxin 3, Etoposide 200, 4-OH—OPB 6.7 μM in wells, DMSO 29.2 μl): Probably
- Significance (a: close to densely seeded cell areas, Low: Colchicine 0.1, Podophyllotoxin 0.3, Etoposide 20, 4-OH—OPB 0.67 μM in wells, DMSO 1.16 μl): No
- Significance (a: close to densely seeded cell areas, Medium: Colchicine 0.3, Podophyllotoxin 0.9, Etoposide 60, 4-OH—OPB 2 μM in wells, DMSO 6.8 μl): No
- Significance (b: sparsely seeded areas, High: Colchicine 1, Podophyllotoxin 3, Etoposide 200, 4-OH—OPB 6.7 μM in wells, DMSO 29.2 μl): Yes
- Significance (b: sparsely seeded areas, Low: Colchicine 0.1, Podophyllotoxin 0.3, Etoposide 20, 4-OH—OPB 0.67 μM in wells, DMSO 1.16 μl): No
- Significance (b: sparsely seeded areas, Medium: Colchicine 0.3, Podophyllotoxin 0.9, Etoposide 60, 4-OH—OPB 2 μM in wells, DMSO 6.8 μl): No

Molecule: O=P1(N(CCCl)CCCl)NCCCO1 (stereo not drawn) [Cycloph. amide]
- Clonal growth after 48 hours incubation [14]: ++
- Clonal growth after 48 hours incubation [15]: ++(+)
- Clonal growth after 48 hours incubation [16]: ++(+)
